Measured values as given in USRE48335E1, “Polymyxin derivatives as antimicrobial compounds” (priority 2014, dated 2020).
In brackets after ≈: the same amount, converted by molar mass. Like-named read-outs stand apart in the source and are kept apart here. Positions of bridges follow the written chain, without caps; N, C: chain ends. Non-standard residues stand in square brackets, D forms with d. Residues, ends and D or L forms follow the SMILES beside them. *: point of attachment. Benzoyl(4-Ph) = O=C(c1ccc(-c2ccccc2)cc1)*; Lauroyl = CCCCCCCCCCCC(=O)*; Decanoyl = CCCCCCCCCC(=O)*; Nonanoyl = CCCCCCCCC(=O)*; Heptanoyl = CCCCCCC(=O)*; Octanoyl = CCCCCCCC(=O)*; Orn = NCCC[C@H](N)C(=O)O; Dab = NCC[C@H](N)C(=O)O; Dap = NC[C@H](N)C(=O)O; PhAc = O=C(Cc1ccccc1)*

How the values were obtained:
Acinetobacter baumannii = test system: Acinetobacter baumannii
Protocol: (§1) MICs of the lipopeptides (trifluoroacetic acid salt, TFA) were determined by broth microdilution in cation-adjusted Mueller-Hinton broth (CAMHB) (Oxoid Australia, Thebarton, SA, Australia) according to Clinical and Laboratory Standards Institute standards (Clinical and Laboratory Standards Institute. Performance standards for antimicrobial susceptibility testing; eighteenth informational supplement M100-S18. Wayne, Pa., 2008). Polymyxin B (sulphate) was employed as control. […]

Pseudomonas aeruginosa = test system: Pseudomonas aeruginosa
Protocol: as §1

Enterobacter cloacae = test system: Enterobacter cloacae
Protocol: as §1

Row | SMILES | Minimum inhibitory concentration, Ab A ATCC 17978 (Acinetobacter baumannii) [µg/mL] | Minimum inhibitory concentration, Ab ATCC 19606 (Acinetobacter baumannii) [µg/mL] | Minimum inhibitory concentration, Ab FADDI-AB034 (Acinetobacter baumannii) [µg/mL] | Minimum inhibitory concentration, Pa ATCC 27853 (Pseudomonas aeruginosa) [µg/mL] | Minimum inhibitory concentration, Pa FADDI-PA022 (Pseudomonas aeruginosa) [µg/mL] | Minimum inhibitory concentration, Pa FADDI-PA025 (Pseudomonas aeruginosa) [µg/mL] | Minimum inhibitory concentration, Ec FADDI-EC001 (Enterobacter cloacae) [µg/mL] | Minimum inhibitory concentration, Ec FADDI-EC003 (Enterobacter cloacae) [µg/mL] | Minimum inhibitory concentration, Ec FADDI-EC006 (Enterobacter cloacae) [µg/mL] | Minimum inhibitory concentration, Ab A ATCC 17978 (Acinetobacter baumannii; Acinetobacter baumannii ATCC 17978, broth microdilution in CAMHB) [µg/mL] | Minimum inhibitory concentration, Ab ATCC 19606 (Acinetobacter baumannii; Acinetobacter baumannii ATCC 19606, broth microdilution in CAMHB) [µg/mL] | Minimum inhibitory concentration, Ab FADDI-AB034 (Acinetobacter baumannii; Acinetobacter baumannii FADDI-AB034, broth microdilution in CAMHB) [µg/mL] | Minimum inhibitory concentration, Pa ATCC 27853 (Pseudomonas aeruginosa; Pseudomonas aeruginosa ATCC 27853, broth microdilution in CAMHB) [µg/mL] | Minimum inhibitory concentration, Pa FADDI-PA022 (Pseudomonas aeruginosa; Pseudomonas aeruginosa FADDI-PA022, broth microdilution in CAMHB) [µg/mL] | Minimum inhibitory concentration, Pa FADDI-PA025 (Pseudomonas aeruginosa; Pseudomonas aeruginosa FADDI-PA025, broth microdilution in CAMHB) [µg/mL] | Minimum inhibitory concentration, Ec FADDI-EC001 (Enterobacter cloacae; Enterobacter cloacae FADDI-EC001, broth microdilution in CAMHB) [µg/mL] | Minimum inhibitory concentration, Ec FADDI-EC003 (Enterobacter cloacae; Enterobacter cloacae FADDI-EC003, broth microdilution in CAMHB) [µg/mL] | Minimum inhibitory concentration, Ec FADDI-EC006 (Enterobacter cloacae; Enterobacter cloacae FADDI-EC006, broth microdilution in CAMHB) [µg/mL]
1 | CCCCCCCCCC(=O)N[C@@H](CCN)C(=O)N[C@H](C(=O)N[C@H](CO)C(=O)N[C@H]1CCNC(=O)[C@H]([C@@H](C)O)NC(=O)[C@H](CCN)NC(=O)[C@H](CCN)NC(=O)[C@H]([C@@H](C)O)NC(=O)[C@@H](CC(C)C)NC(=O)[C@H](CCN)NC1=O)[C@@H](C)O [Compound 9] (Decanoyl-[Dab]T[dS][Dab][Dab][dL]T[Dab][Dab]T; lactam 4-C) | 1 (≈ 0.863 µM) | 0.25 (≈ 0.216 µM) | 0.5 (≈ 0.432 µM) | 4 (≈ 3.45 µM) | 8 (≈ 6.91 µM) | 32 (≈ 27.6 µM) | 0.5 (≈ 0.432 µM) | 1 (≈ 0.863 µM) | 1 (≈ 0.863 µM) |  |  |  |  |  |  |  |  | 
2 | CCCCCCCCCCCC(=O)N[C@@H](CCN)C(=O)N[C@H](C(=O)N[C@H](CO)C(=O)N[C@H]1CCNC(=O)[C@H]([C@@H](C)O)NC(=O)[C@H](CCN)NC(=O)[C@H](CCN)NC(=O)[C@H]([C@@H](C)O)NC(=O)[C@@H](CC(C)C)NC(=O)[C@H](CCN)NC1=O)[C@@H](C)O [Compound 10] (Lauroyl-[Dab]T[dS][Dab][Dab][dL]T[Dab][Dab]T; lactam 4-C) | 0.5 (≈ 0.421 µM) | 1 (≈ 0.843 µM) | 1 (≈ 0.843 µM) | 2 (≈ 1.69 µM) | 4 (≈ 3.37 µM) | 4 (≈ 3.37 µM) | 1 (≈ 0.843 µM) | 0.5 (≈ 0.421 µM) | 1 (≈ 0.843 µM) |  |  |  |  |  |  |  |  | 
3 | CC(C)C[C@H]1NC(=O)[C@H](CCN)NC(=O)[C@@H](NC(=O)[C@@H](CO)NC(=O)[C@@H](NC(=O)[C@H](CCN)NC(=O)c2ccc(-c3ccccc3)cc2)[C@@H](C)O)CCNC(=O)[C@H]([C@@H](C)O)NC(=O)[C@H](CCN)NC(=O)[C@H](CCN)NC(=O)[C@H]([C@@H](C)O)NC1=O [Compound 11] ({Benzoyl(4-Ph)}-[Dab]T[dS][Dab][Dab][dL]T[Dab][Dab]T; lactam 4-C) | 0.5 (≈ 0.422 µM) | 2 (≈ 1.69 µM) | 1 (≈ 0.844 µM) | 4 (≈ 3.38 µM) | 4 (≈ 3.38 µM) | 32 (≈ 27 µM) | 0.5 (≈ 0.422 µM) | 0.5 (≈ 0.422 µM) | 0.5 (≈ 0.422 µM) |  |  |  |  |  |  |  |  | 
4 | CC(C)C[C@H]1NC(=O)[C@H](CCN)NC(=O)[C@@H](NC(=O)[C@@H](CO)NC(=O)[C@@H](NC(=O)[C@H](CCN)NC(=O)Cc2ccccc2)[C@@H](C)O)CCNC(=O)[C@H]([C@@H](C)O)NC(=O)[C@H](CCN)NC(=O)[C@H](CCN)NC(=O)[C@H]([C@@H](C)O)NC1=O [Compound 12] (PhAc-[Dab]T[dS][Dab][Dab][dL]T[Dab][Dab]T; lactam 4-C) |  |  |  |  |  |  |  |  |  | 4 (≈ 3.56 µM) | 4 (≈ 3.56 µM) | 4 (≈ 3.56 µM) | >32 | 8 (≈ 7.13 µM) | >32 | 0.25 (≈ 0.223 µM) | 0.5 (≈ 0.446 µM) | 1 (≈ 0.891 µM)
5 | CCCCCCCC(=O)N[C@@H](CN)C(=O)N[C@H](C(=O)N[C@H](CO)C(=O)N[C@H]1CCNC(=O)[C@H]([C@@H](C)O)NC(=O)[C@H](CCN)NC(=O)[C@H](CCN)NC(=O)[C@H]([C@@H](C)O)NC(=O)[C@@H](CC(C)C)NC(=O)[C@H](CCN)NC1=O)[C@@H](C)O [Compound 13] (Octanoyl-[Dap]T[dS][Dab][Dab][dL]T[Dab][Dab]T; lactam 4-C) | 1 (≈ 0.896 µM) | 1 (≈ 0.896 µM) | 0.5 (≈ 0.448 µM) | 4 (≈ 3.58 µM) | 4 (≈ 3.58 µM) | >32 | 0.25 (≈ 0.224 µM) | 0.25 (≈ 0.224 µM) | 0.5 (≈ 0.448 µM) |  |  |  |  |  |  |  |  | 
6 | CCCCCCCC(=O)N[C@@H](CCCN)C(=O)N[C@H](C(=O)N[C@H](CO)C(=O)N[C@H]1CCNC(=O)[C@H]([C@@H](C)O)NC(=O)[C@H](CCN)NC(=O)[C@H](CCN)NC(=O)[C@H]([C@@H](C)O)NC(=O)[C@@H](CC(C)C)NC(=O)[C@H](CCN)NC1=O)[C@@H](C)O [Compound 14] (Octanoyl-[Orn]T[dS][Dab][Dab][dL]T[Dab][Dab]T; lactam 4-C) | 8 (≈ 6.99 µM) | 16 (≈ 14 µM) | 4 (≈ 3.5 µM) | >32 | 8 (≈ 6.99 µM) | >32 | 0.25 (≈ 0.218 µM) | 0.5 (≈ 0.437 µM) | 4 (≈ 3.5 µM) |  |  |  |  |  |  |  |  | 
7 | CCCCCCCC(=O)N[C@@H](CCN)C(=O)N[C@H](C(=O)N[C@@H](C(=O)N[C@H]1CCNC(=O)[C@H]([C@@H](C)O)NC(=O)[C@H](CCN)NC(=O)[C@H](CCN)NC(=O)[C@H]([C@@H](C)O)NC(=O)[C@@H](CC(C)C)NC(=O)[C@H](CCN)NC1=O)[C@H](C)O)[C@@H](C)O [Compound 15] (Octanoyl-[Dab]T[dT][Dab][Dab][dL]T[Dab][Dab]T; lactam 4-C) | 0.5 (≈ 0.437 µM) | 2 (≈ 1.75 µM) | 1 (≈ 0.874 µM) | 16 (≈ 14 µM) | 16 (≈ 14 µM) | >32 | 1 (≈ 0.874 µM) | 2 (≈ 1.75 µM) | 1 (≈ 0.874 µM) |  |  |  |  |  |  |  |  | 
8 | CCCCCCC(=O)N[C@@H](CCN)C(=O)N[C@H](C(=O)N[C@H](CO)C(=O)N[C@H]1CCNC(=O)[C@H]([C@@H](C)O)NC(=O)[C@H](CCN)NC(=O)[C@H](CCN)NC(=O)[C@H]([C@@H](C)O)NC(=O)[C@@H](CC(C)C)NC(=O)[C@H](CCN)NC1=O)[C@@H](C)O [Compound 16] (Heptanoyl-[Dab]T[dS][Dab][Dab][dL]T[Dab][Dab]T; lactam 4-C) | 0.5 (≈ 0.448 µM) | 2 (≈ 1.79 µM) | 2 (≈ 1.79 µM) | 4 (≈ 3.58 µM) | 4 (≈ 3.58 µM) | >32 | 0.5 (≈ 0.448 µM) | 0.25 (≈ 0.224 µM) | 0.25 (≈ 0.224 µM) |  |  |  |  |  |  |  |  | 
9 | CCCCCCCCC(=O)N[C@@H](CCN)C(=O)N[C@H](C(=O)N[C@H](CO)C(=O)N[C@H]1CCNC(=O)[C@H]([C@@H](C)O)NC(=O)[C@H](CCN)NC(=O)[C@H](CCN)NC(=O)[C@H]([C@@H](C)O)NC(=O)[C@@H](CC(C)C)NC(=O)[C@H](CCN)NC1=O)[C@@H](C)O [Compound 17] (Nonanoyl-[Dab]T[dS][Dab][Dab][dL]T[Dab][Dab]T; lactam 4-C) | <0.125 | <0.125 | 0.25 (≈ 0.218 µM) | 2 (≈ 1.75 µM) | 4 (≈ 3.5 µM) | 16 (≈ 14 µM) | 0.25 (≈ 0.218 µM) | 0.25 (≈ 0.218 µM) | 0.5 (≈ 0.437 µM) |  |  |  |  |  |  |  |  | 
10 | CCCCCCCCCCCC(=O)N[C@@H](CCN)C(=O)N[C@H](C(=O)N[C@@H](CCN)C(=O)N[C@H]1CCNC(=O)[C@H]([C@@H](C)O)NC(=O)[C@H](CCN)NC(=O)[C@H](CCN)NC(=O)[C@H]([C@@H](C)O)NC(=O)[C@@H](CC(C)C)NC(=O)[C@H](CCN)NC1=O)[C@@H](C)O [Compound 28] (Lauroyl-[Dab]T[Dab][Dab][Dab][dL]T[Dab][Dab]T; lactam 4-C) | 2 (≈ 1.67 µM) | 2 (≈ 1.67 µM) | 1 (≈ 0.834 µM) | 2 (≈ 1.67 µM) | 4 (≈ 3.33 µM) | 4 (≈ 3.33 µM) | 0.5 (≈ 0.417 µM) | 0.5 (≈ 0.417 µM) | 0.5 (≈ 0.417 µM) |  |  |  |  |  |  |  |  | 
11 | CCCCCCCC(=O)N[C@@H](CN)C(=O)N[C@H](C(=O)N[C@@H](CCN)C(=O)N[C@H]1CCNC(=O)[C@H]([C@@H](C)O)NC(=O)[C@H](CCN)NC(=O)[C@H](CCN)NC(=O)[C@H]([C@@H](C)O)NC(=O)[C@@H](CC(C)C)NC(=O)[C@H](CCN)NC1=O)[C@@H](C)O [Compound 31] (Octanoyl-[Dap]T[Dab][Dab][Dab][dL]T[Dab][Dab]T; lactam 4-C) | 4 (≈ 3.54 µM) | 4 (≈ 3.54 µM) | 2 (≈ 1.77 µM) | 0.5 (≈ 0.443 µM) | 0.5 (≈ 0.443 µM) | 16 (≈ 14.2 µM) | <0.125 | 0.25 (≈ 0.221 µM) | 0.5 (≈ 0.443 µM) |  |  |  |  |  |  |  |  | 
